Data: US12275731B2, “Azaindole inhibitors of wild-type and mutant forms of LRRK2” (DANA-FARBER CANCER INSTITUTE, INC., priority 2018, dated 2025)

How the values were obtained:
Assay in all cases: KinomeScan profiling
Assay type in all cases: binding
[1] = biological target: TLK2 (Homo sapiens, UniProt Q86UE8); conditions: TLK2, 1 μM; read-out: % control
Summary of the method: (§1)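 At 1 μM in DMSO, compounds are run through a broad 468-member kinase panel. The luminescent read-out is normalised so that vehicle gives 100% and a positive control gives 0%; any kinase falling below 35% is treated as a target.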

[2] = biological target: T1, ACVR1B (Homo sapiens, UniProt P36896); conditions: read-out: % control
T1 construct: purchased KinomeScan®
T1 sequence (P36896 24-505): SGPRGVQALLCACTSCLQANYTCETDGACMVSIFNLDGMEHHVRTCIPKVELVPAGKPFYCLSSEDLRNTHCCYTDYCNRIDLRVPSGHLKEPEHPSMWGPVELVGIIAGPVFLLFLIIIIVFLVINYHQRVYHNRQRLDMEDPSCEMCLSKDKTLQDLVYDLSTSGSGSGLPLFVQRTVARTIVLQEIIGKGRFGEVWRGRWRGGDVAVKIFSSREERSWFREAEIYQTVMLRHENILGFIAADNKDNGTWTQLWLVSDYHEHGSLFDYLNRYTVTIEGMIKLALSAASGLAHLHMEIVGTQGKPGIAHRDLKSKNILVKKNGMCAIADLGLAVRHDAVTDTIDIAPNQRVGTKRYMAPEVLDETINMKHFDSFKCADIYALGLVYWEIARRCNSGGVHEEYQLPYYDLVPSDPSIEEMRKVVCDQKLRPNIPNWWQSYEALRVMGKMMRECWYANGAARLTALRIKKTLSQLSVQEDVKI
Summary of the method: as §1

[3] = biological target: PLK2 (Homo sapiens, UniProt Q9NYY3); conditions: PLK2, 1 μM; read-out: % control
Summary of the method: as §1

[4] = biological target: VEGFR2 (Homo sapiens, UniProt P35968); conditions: VEGFR2, 1 μM; read-out: % control
Summary of the method: as §1

[5] = biological target: T2, BIKE (Homo sapiens, UniProt Q9NSY1); conditions: read-out: % control
T2 construct: purchased KinomeScan®
Summary of the method: as §1

[6] = biological target: PCTK3 (Homo sapiens, UniProt Q07002); conditions: PCTK3, 1 μM; read-out: % control
Summary of the method: as §1

[7] = biological target: T3, TNNI3K (Homo sapiens, UniProt Q59H18); conditions: read-out: % control
T3 sequence (Q59H18 1-835): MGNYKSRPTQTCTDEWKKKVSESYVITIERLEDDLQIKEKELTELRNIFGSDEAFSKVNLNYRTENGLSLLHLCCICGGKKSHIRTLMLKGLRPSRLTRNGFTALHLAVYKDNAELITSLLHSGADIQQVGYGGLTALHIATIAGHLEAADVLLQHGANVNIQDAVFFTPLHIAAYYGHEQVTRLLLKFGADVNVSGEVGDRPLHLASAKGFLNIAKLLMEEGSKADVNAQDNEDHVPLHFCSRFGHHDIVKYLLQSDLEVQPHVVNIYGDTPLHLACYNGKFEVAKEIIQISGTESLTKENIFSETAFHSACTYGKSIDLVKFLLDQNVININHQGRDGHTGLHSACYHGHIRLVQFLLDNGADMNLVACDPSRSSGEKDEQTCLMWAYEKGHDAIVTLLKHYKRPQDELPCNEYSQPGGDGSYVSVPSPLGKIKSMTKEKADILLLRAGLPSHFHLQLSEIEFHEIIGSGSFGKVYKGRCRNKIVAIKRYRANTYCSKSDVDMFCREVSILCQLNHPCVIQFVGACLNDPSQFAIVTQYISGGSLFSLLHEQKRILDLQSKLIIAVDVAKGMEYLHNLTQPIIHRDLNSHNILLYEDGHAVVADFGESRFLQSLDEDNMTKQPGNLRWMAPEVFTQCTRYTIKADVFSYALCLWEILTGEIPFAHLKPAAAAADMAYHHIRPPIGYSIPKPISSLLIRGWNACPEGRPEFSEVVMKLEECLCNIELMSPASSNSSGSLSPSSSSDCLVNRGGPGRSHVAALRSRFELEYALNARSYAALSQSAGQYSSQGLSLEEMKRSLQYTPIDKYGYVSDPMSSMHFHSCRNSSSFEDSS
Summary of the method: as §1

[8] = biological target: CSF1R (Homo sapiens, UniProt P07333); conditions: read-out: % control
Summary of the method: as §1

[9] = biological target: T4, MYLK4 (Homo sapiens, UniProt Q86YV6); conditions: MYLK4, 1 μM; read-out: % control
T4 sequence (Q86YV6 1-388): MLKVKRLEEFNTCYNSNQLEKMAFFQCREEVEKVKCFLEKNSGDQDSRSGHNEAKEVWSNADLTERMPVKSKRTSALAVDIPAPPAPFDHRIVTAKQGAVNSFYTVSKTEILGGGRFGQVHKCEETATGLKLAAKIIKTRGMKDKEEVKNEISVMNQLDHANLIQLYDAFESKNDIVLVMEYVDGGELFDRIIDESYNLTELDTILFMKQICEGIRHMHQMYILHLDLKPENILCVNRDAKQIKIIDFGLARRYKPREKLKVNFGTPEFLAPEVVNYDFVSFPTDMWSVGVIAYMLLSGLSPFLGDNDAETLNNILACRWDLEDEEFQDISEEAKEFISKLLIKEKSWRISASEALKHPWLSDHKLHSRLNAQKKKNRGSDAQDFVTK
Summary of the method: as §1

Sequence of CSF1R (P07333 20-972): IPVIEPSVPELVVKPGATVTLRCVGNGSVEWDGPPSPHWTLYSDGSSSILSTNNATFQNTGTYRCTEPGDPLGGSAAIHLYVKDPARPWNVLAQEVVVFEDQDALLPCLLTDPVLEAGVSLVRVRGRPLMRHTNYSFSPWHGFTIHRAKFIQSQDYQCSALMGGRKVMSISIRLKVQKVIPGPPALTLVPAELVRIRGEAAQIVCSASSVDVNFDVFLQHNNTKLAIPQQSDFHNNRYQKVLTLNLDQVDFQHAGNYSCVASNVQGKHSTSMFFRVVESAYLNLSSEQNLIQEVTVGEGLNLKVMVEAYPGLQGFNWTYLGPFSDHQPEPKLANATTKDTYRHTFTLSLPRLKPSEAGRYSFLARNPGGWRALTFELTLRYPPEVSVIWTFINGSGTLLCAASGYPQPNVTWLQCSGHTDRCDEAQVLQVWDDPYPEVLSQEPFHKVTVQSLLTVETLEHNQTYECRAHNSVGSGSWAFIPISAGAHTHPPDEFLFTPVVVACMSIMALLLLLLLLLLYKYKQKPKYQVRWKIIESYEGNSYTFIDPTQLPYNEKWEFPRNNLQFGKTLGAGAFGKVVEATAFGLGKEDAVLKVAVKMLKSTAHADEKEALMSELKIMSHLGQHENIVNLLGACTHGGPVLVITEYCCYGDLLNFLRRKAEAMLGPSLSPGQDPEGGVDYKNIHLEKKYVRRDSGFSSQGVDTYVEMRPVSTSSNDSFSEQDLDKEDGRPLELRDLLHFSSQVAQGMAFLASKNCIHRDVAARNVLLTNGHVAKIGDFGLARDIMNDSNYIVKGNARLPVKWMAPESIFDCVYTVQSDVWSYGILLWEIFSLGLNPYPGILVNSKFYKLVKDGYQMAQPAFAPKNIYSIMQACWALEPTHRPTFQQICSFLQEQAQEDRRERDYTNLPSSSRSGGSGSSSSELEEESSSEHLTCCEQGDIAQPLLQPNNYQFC
Sequence of TLK2 (Q86UE8 whole entry): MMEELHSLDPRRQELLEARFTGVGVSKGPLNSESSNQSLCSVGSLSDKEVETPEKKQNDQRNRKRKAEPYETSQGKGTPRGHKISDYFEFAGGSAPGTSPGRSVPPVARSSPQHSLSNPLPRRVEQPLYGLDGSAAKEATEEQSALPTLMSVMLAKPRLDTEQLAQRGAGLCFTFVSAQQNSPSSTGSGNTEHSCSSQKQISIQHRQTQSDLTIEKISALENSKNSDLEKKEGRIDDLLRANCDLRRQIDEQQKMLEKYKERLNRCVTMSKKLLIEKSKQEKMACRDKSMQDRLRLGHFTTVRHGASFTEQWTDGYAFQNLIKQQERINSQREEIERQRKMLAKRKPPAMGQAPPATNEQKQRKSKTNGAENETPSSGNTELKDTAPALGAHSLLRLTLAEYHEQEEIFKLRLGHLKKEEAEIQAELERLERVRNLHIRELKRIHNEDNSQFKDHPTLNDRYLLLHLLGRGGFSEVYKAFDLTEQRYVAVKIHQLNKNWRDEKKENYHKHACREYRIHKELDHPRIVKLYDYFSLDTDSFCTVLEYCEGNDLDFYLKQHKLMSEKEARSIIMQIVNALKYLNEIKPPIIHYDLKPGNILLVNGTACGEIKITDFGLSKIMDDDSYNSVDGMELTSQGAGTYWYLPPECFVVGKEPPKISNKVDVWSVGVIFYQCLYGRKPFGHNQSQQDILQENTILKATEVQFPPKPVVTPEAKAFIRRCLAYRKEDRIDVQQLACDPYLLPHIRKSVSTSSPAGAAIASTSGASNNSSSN
T2 sequence (Q9NSY1 whole entry): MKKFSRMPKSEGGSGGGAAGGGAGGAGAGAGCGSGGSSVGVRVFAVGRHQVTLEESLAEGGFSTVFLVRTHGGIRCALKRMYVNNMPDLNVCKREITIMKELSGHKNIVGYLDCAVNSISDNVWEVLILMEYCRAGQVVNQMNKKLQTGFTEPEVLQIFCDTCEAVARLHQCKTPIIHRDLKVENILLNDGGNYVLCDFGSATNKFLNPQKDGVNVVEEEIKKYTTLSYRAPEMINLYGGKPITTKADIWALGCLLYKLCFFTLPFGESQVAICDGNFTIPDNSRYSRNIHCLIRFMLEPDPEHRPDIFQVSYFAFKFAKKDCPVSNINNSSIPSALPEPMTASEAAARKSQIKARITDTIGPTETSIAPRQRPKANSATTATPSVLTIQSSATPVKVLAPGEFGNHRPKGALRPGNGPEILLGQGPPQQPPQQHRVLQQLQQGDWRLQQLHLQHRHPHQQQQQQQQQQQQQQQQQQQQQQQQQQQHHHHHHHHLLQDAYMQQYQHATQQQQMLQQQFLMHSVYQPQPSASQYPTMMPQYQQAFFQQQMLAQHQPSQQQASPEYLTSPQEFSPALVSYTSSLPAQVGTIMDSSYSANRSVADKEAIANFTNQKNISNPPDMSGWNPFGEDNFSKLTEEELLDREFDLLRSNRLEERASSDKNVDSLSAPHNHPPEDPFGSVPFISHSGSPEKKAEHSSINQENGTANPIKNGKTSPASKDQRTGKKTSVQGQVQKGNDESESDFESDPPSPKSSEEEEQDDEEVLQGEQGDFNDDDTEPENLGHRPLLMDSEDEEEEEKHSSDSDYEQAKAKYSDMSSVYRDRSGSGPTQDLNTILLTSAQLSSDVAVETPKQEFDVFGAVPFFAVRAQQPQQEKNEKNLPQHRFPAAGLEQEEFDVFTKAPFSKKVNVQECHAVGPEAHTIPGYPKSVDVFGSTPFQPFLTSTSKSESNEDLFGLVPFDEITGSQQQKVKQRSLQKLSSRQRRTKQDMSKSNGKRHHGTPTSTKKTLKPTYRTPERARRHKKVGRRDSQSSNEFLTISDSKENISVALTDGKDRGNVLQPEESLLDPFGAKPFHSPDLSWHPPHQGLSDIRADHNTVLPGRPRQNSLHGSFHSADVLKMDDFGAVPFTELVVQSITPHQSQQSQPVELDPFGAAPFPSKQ
Sequence of PLK2 (Q9NYY3 whole entry): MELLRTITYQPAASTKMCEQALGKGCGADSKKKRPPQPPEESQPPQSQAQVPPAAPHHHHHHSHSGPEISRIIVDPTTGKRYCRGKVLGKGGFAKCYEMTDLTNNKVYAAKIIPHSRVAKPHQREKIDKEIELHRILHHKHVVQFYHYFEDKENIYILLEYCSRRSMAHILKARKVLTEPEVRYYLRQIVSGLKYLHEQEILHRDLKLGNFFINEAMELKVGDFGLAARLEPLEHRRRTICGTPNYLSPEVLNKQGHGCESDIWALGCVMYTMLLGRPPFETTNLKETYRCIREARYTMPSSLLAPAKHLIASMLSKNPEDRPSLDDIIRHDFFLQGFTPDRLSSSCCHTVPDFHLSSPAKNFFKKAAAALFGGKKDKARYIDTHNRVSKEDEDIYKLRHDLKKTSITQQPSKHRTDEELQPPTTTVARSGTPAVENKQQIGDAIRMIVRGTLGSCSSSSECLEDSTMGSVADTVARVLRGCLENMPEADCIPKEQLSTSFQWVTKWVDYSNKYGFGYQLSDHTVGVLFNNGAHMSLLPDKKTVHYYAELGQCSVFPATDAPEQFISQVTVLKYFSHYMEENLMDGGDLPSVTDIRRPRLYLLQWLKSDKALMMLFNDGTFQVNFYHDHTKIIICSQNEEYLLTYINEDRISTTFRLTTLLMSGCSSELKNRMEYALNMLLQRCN
Sequence of VEGFR2 (P35968 20-1356): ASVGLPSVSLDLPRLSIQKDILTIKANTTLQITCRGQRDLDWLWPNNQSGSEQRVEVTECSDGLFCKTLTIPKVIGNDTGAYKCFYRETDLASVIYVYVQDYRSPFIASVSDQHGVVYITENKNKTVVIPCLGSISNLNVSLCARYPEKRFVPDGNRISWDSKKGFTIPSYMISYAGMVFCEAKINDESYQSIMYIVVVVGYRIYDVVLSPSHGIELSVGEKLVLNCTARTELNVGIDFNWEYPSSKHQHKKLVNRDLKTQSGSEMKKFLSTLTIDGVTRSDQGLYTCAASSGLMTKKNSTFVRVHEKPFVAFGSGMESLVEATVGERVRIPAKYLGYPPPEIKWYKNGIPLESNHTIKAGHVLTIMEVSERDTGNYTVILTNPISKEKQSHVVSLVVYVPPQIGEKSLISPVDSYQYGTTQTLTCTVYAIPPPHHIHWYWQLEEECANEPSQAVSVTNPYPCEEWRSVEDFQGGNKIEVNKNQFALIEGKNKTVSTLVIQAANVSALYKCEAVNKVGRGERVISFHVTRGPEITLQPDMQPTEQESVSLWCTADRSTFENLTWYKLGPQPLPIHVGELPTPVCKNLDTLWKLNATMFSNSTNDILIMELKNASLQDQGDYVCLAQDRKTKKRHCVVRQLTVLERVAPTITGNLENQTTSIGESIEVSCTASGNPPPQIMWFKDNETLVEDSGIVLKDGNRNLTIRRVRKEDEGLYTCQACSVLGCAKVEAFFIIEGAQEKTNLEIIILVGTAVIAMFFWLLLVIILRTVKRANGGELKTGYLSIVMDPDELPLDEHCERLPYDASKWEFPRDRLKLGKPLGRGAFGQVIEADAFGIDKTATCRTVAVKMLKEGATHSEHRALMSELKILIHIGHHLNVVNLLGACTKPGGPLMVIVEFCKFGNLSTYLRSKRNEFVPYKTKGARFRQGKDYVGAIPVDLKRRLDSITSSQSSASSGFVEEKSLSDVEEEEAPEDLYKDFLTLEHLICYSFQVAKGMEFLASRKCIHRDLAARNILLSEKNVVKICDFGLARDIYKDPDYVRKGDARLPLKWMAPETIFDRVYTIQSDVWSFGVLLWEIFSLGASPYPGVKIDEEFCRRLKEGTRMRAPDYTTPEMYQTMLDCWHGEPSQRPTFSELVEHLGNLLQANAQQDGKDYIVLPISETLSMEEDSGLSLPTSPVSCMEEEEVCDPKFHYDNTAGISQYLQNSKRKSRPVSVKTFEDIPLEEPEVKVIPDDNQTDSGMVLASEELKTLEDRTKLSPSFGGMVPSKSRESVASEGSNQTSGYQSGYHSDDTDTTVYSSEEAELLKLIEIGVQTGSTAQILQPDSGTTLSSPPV

SMILES | remaining binding at 1 µM [1] [%] | remaining binding at 1 µM [2] [%] | remaining binding at 1 µM [3] [%] | remaining binding at 1 µM [4] [%] | remaining binding at 1 µM [5] [%] | remaining binding at 1 µM [6] [%] | remaining binding at 1 µM [7] [%] | remaining binding at 1 µM [8] [%] | remaining binding at 1 µM [9] [%]
CNc1c(-c2ccc(C(=O)N3CCC(N4CCOCC4)CC3)cc2)cnc2[nH]cc(Cl)c12 [Compound 96, (4-(3-chloro-4-(methylamino)-1H-pyrrolo[2,3-b]pyridin-5-yl)phenyl)(4-morpholinopiperidin-1-yl)methanone] | 100 | 74 | 100 | 4.2 | 0.85 | 100 | 74 | 73 | 100
O=C(c1ccc(-c2cnc3[nH]cc(Cl)c3c2NC2CCCC2)cc1)N1CCC(N2CCOCC2)CC1 [Compound 101, (4-(3-chloro-4-(cyclopentylamino)-1H-pyrrolo[2,3-b]pyridin-5-yl)phenyl)(4-morpholinopiperidin-1-yl)methanone] | 100 | 98 | 100 | 33 | 6.8 | 96 | 100 | 28 | 95
CNc1c(-c2cnn([C@H]3CCN(C(C)=O)C[C@@H]3F)c2)cnc2[nH]cc(Cl)c12 [Compound 77, 1-((3S,4S)-4-(4-(3-chloro-4-(methylamino)-1H-pyrrolo[2,3-b]pyridin-5-yl)-1H-pyrazol-1-yl)-3-fluoropiperidin-1-yl)ethan-1-one] | 99 | 83 | 85 | 2.8 | 0.4 | 100 | 65 | 74 | 90
